{"source": "patent US20070299047A1", "about": "“Combination of Organic Compounds” (priority 2004, published 2007)", "key": {"ob/ob mice": {"test_system": "ob/ob mice", "experiment": "Food intake in ob/ob mice after seven days of treatment", "type": "in vivo", "settings": "5 mg/kg/day"}, "[1]": {"test_system": "Chrna2 (cholinergic receptor, neuronal nicotinic, alpha polypeptide 2)", "experiment": "Chrna2 gene expression in the duodenum of treated ob/ob mice", "type": "in vivo", "settings": "p<0.01"}}}
{"smiles": "Cc1oc(-c2ccc(C(F)(F)F)cc2)nc1COc1ccc(S(=O)(=O)N2c3ccccc3C[C@@H]2C(=O)O)cc1", "note": "[(R)-1-{4-[5-methyl-2-(4-trifluoromethyl-phenyl)-oxazol-4-ylmethoxy]-benzenesulfonyl}-2,3-dihydro-1H-indole-2-carboxylic acid]", "values": [{"measurement": "daily food intake down by", "setting": "ob/ob mice; by day 7, p<0.01", "result": 50, "unit": "%"}, {"measurement": "food intake compared to vehicle", "setting": "ob/ob mice; starting on day 3", "result": "significantly lowered food intake"}, {"measurement": "Chrna2 expression in the duodenum increased by", "setting": "[1]; after 1 day of treatment", "result": 15, "unit": "fold"}, {"measurement": "Chrna2 expression in the duodenum increased by", "setting": "[1]; after 2 days of treatment", "result": 11, "unit": "fold"}, {"measurement": "Chrna2 expression in the duodenum increased by", "setting": "[1]; after 7 days of treatment", "result": "~140", "unit": "fold"}]}
